Data as given in PMC2669305 (Assay and drug development technologies, 2008).

Molecular target: T1, thioredoxin glutathione reductase (TGR) (Schistosoma mansoni, UniProt Q962Y6)
T1 sequence (Q962Y6 1-598): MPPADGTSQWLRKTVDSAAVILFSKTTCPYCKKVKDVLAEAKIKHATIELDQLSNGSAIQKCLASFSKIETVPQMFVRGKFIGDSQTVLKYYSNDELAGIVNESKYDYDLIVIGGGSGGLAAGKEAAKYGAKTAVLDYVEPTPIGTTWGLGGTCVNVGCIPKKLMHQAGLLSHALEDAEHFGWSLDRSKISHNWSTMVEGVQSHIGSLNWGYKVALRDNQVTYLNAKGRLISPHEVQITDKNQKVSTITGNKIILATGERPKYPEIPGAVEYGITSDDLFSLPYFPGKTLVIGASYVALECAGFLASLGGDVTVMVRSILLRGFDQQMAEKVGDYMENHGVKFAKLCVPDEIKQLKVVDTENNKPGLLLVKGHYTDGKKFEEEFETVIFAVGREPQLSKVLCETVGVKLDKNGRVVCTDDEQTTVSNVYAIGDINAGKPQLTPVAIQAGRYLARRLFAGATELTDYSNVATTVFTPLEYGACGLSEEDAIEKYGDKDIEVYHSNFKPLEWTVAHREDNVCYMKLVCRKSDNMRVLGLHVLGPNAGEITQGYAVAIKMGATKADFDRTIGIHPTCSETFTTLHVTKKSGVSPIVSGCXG
Assay type: biochemical

N#Cc1c(-c2ccccc2)no[n+]1[O-] [furoxan, 4-phenyl-3-furoxancarbonitrile]
IC50: 4 to 7.9 µM
